Experimental data published in patent US20170008928A1, “NOVEL PEPTIDES AND PEPTIDE DERIVATIVES AND USES THEREOF” (Novo Nordisk A/S, priority 2015, published 2017).
Like-named read-outs stand apart in the source and are kept apart here. Starred links: 1 amine or outer side, 2 acyl side, 3 side chain; linkers in the order of their positions; H or OH if unused. Non-standard residues stand in square brackets, D forms with d. Residues, ends and D or L forms follow the SMILES beside them. *: point of attachment. Phe(4-CH2SO3H) = N[C@@H](Cc1ccc(CS(=O)(=O)O)cc1)C(=O)O; sY = N[C@@H](Cc1ccc(OS(=O)(=O)O)cc1)C(=O)O; C18 diacid = O=C(O)CCCCCCCCCCCCCCCCC(=O)*; d(βAsp) = O=C(O)[C@@H](CC(=O)[*:2])N[*:1]; γGlu = O=C(O)[C@H](CCC(=O)[*:2])N[*:1]; 1Nal = N[C@@H](Cc1cccc2ccccc12)C(=O)O; NMeF = CN[C@@H](Cc1ccccc1)C(=O)O; dNMeD = CN[C@H](CC(=O)O)C(=O)O; Nle = CCCC[C@H](N)C(=O)O; AEEA = NCCOCCOCC(=O)O

T1: human cholecystokinin-1 receptor (CCK-1R) (Homo sapiens, UniProt P32238)
T1 construct: host or cells: 1321-N1 cells
T1 sequence (P32238 1-428): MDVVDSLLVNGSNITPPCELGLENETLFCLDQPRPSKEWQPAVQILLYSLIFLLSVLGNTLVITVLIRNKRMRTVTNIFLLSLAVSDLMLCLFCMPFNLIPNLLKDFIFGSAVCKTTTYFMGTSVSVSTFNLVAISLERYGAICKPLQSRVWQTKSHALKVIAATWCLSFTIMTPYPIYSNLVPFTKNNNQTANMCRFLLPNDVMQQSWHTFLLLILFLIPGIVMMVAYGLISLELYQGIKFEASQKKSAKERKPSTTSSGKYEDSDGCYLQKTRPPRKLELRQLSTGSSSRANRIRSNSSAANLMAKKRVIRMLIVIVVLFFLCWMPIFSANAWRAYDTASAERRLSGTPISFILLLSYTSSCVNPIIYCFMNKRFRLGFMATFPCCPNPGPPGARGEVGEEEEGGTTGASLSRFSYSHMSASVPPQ

T2: human cholecystokinin-2 receptor (CCK-2R) (Homo sapiens, UniProt P32239)
T2 construct: host or cells: 1321-N1 cells (plasma membranes prepared by Evotec AG Hamburg)
T2 sequence (P32239 1-447): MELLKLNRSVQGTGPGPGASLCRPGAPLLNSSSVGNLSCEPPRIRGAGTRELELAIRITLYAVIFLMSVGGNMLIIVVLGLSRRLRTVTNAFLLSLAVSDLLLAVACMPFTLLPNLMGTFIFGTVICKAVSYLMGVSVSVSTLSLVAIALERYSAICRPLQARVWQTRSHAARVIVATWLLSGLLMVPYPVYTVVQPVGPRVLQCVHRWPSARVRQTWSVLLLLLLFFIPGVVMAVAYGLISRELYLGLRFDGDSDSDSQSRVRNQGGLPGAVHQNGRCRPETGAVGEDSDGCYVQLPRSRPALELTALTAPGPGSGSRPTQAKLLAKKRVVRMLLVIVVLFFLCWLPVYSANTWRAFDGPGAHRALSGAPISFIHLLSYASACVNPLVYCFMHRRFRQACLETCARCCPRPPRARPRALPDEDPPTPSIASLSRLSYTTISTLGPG

T3: human cholecystokinin-2 receptor (human, UniProt P32239 1-447)
T3 sequence (looked up): T2 sequence (P32239 1-447)

T4: human cholecystokinin-1 receptor (human, UniProt P32238 1-428)
T4 sequence (looked up): T1 sequence (P32238 1-428)

B1: 2-[2-[2-[[2-[2-[2-[[(4S)-4-Carboxy-4-(17-carboxyheptadecanoylamino)butanoyl]amino]ethoxy]ethoxy]acetyl]amino]ethoxy]ethoxy]acetyl-DbAsp-Phe(4-sulfomethyl)-Nle-G … (peptide)
peptide: {C18 diacid-γGlu-AEEA-AEEA}-[d(βAsp)][Phe(4-CH2SO3H)][Nle]GW[Nle][dNMeD][NMeF]-NH2
SMILES: CCCC[C@H](NC(=O)[C@H](Cc1ccc(CS(=O)(=O)O)cc1)NC(=O)C[C@@H](NC(=O)COCCOCCNC(=O)COCCOCCNC(=O)CC[C@H](NC(=O)CCCCCCCCCCCCCCCCC(=O)O)C(=O)O)C(=O)O)C(=O)NCC(=O)N[C@@H](Cc1c[nH]c2ccccc12)C(=O)N[C@@H](CCCC)C(=O)N(C)[C@H](CC(=O)O)C(=O)N(C)[C@@H](Cc1ccccc1)C(N)=O

What was measured:
[1] = molecular target: T1, human cholecystokinin-1 receptor (CCK-1R); experiment: In vitro receptor binding to CCK-1R, SPA displacement of [125I]-CCK-8s from plasma membranes; settings: for CCK-1R binding selectivity (IC50 (CCK-2R)/IC50 (CCK-1R)): ratio of binding IC50 values, >1 = preference for CCK-1R
[2] = molecular target: T1, human cholecystokinin-1 receptor (CCK-1R); experiment: In vitro potency on CCK-1R, whole cell functional assay (IP1 accumulation, IP-One HTRF); format: cell-based
[3] = molecular target: T2, human cholecystokinin-2 receptor (CCK-2R); experiment: In vitro potency on CCK-2R, whole cell functional assay (IP1 accumulation, IP-One HTRF); format: cell-based
[4] = molecular target: T2, human cholecystokinin-2 receptor (CCK-2R); experiment: In vitro receptor binding to CCK-2R, SPA displacement of [125I]-CCK-8s from plasma membranes
[5] = molecular target: T3, human cholecystokinin-2 receptor; experiment: cell-based or functional assay
[6] = molecular target: T4, human cholecystokinin-1 receptor; experiment: cell-based or functional assay
[7] = 1321-N1 cells stably expressing CCK-1R, IP1 accumulation, average of min. three replicates, read-out: EC50 (CCK-1R)
[8] = ratio of functional EC50 values, >1 = preference for CCK-1R

Row | Molecule | CCK-1R binding selectivity (IC50 (CCK-2R)/IC50 (CCK-1R)) [1] | EC50 [2, 7] | CCK-1R selectivity (EC50 (CCK-2R)/EC50 (CCK-1R)) [2, 8] | EC50 [3] | IC50 [1] | IC50 [4] | EC50 [2] | EC50 (CCK-1R) [6] | also measured
1 | CCCC[C@H](NC(=O)[C@H](Cc1c[nH]c2ccccc12)NC(=O)CNC(=O)[C@H](CO)NC(=O)[C@H](Cc1ccc(OS(=O)(=O)O)cc1)NC(=O)[C@H](CC(=O)O)NC(=O)COCCOCCNC(=O)COCCOCCNC(=O)CC[C@H](NC(=O)CCCCCCCCCCCCCCCCC(=O)O)C(=O)O)C(=O)N(C)[C@H](CC(=O)O)C(=O)N(C)[C@@H](Cc1ccccc1)C(N)=O [Example 45, 2-[2-[2-[[2-[2-[2-[[(4S)-4-Carboxy-4-(17-carboxyheptadecanoylamino)butanoyl]amino]ethoxy]ethoxy]acetyl]amino]ethoxy]ethoxy]acetyl-Asp-sTyr-Ser-Gly-Trp-Nle-DMeAsp-MePhe-amide] ({C18 diacid-γGlu-AEEA-AEEA}-D[sY]SGW[Nle][dNMeD][NMeF]-NH2) | 82000 | 0.31 nM | 3000 |  |  |  |  |  | 
2 | CCCC[C@H](NC(=O)[C@H](Cc1ccc(OS(=O)(=O)O)cc1)NC(=O)[C@@H](N)CC(=O)O)C(=O)NCC(=O)N[C@@H](Cc1c[nH]c2ccccc12)C(=O)N[C@@H](CCCC)C(=O)N(C)[C@H](CC(=O)O)C(=O)N[C@@H](Cc1cccc2ccccc12)C(N)=O [Example 54, Asp-sTyr-Nle-Gly-Trp-Nle-DMeAsp-1Nal-amide] (H-D[sY][Nle]GW[Nle][dNMeD][1Nal]-NH2) | 84000 | 0.14 nM | 2100 |  |  |  |  |  | EC50 ([3]; 1321-N1 cells stably expressing CCK-2R, IP1 accumulation, highest dose tested 1×10^6 pM, read-out: EC50 (CCK-2R)): 290 nM; IC50 ([1]; displacement of [125I]-CCK-8s, plasma membranes of 1321-N1 cells expressing CCK-1R, read-out: IC50 (CCK-1R)): 0.027 nM; IC50 ([4]; displacement of [125I]-CCK-8s, plasma membranes of 1321-N1 cells expressing CCK-2R, highest dose tested 1×10^7 pM, read-out: IC50 (CCK-2R)): 2300 nM
3 | CC(C)C[C@H](NC(=O)[C@H](Cc1ccc(OS(=O)(=O)O)cc1)NC(=O)[C@@H](N)CC(=O)O)C(=O)NCC(=O)N[C@@H](Cc1c[nH]c2ccccc12)C(=O)N[C@@H](C)C(=O)N(C)[C@H](CC(=O)O)C(=O)N(C)[C@@H](Cc1ccccc1)C(N)=O [Example 84, Asp-sTyr-Leu-Gly-Trp-Ala-DMeAsp-MePhe-amide] (H-D[sY]LGWA[dNMeD][NMeF]-NH2) |  |  |  | > 1000 nM | 0.53 nM | > 10000 nM | 0.22 nM |  | 
4 | 2-[2-[2-[[2-[2-[2-[[(4S)-4-Carboxy-4-(17-carboxyheptadecanoylamino)butanoyl]amino]ethoxy]ethoxy]acetyl]amino]ethoxy]ethoxy]acetyl-Asp-sTyr-Nle-Gly-Trp-Nle-DMeAsp-1Nal-amide (peptide) |  |  |  |  |  |  |  | 0.37 nM | EC50 (CCK-2R) [5]: 180 nM
5 | CC(C)C[C@H](NC(=O)[C@H](Cc1ccc(OS(=O)(=O)O)cc1)NC(=O)[C@H](CC(=O)O)NC(=O)COCCOCCNC(=O)COCCOCCNC(=O)CC[C@H](NC(=O)CCCCCCCCCCCCCCCCC(=O)O)C(=O)O)C(=O)NCC(=O)N[C@@H](Cc1c[nH]c2ccccc12)C(=O)N[C@H](C(=O)N(C)[C@H](CC(=O)O)C(=O)N(C)[C@@H](Cc1ccccc1)C(N)=O)C(C)C [Example 14, 2-[2-[2-[[2-[2-[2-[[(4S)-4-Carboxy-4-(17-carboxyheptadecanoylamino)butanoyl]amino]ethoxy]ethoxy]acetyl]amino]ethoxy]ethoxy]acetyl-Asp-sTyr-Leu-Gly-Trp-Val-DMeAsp-MePhe-amide] ({C18 diacid-γGlu-AEEA-AEEA}-D[sY]LGWV[dNMeD][NMeF]-NH2) | 21000 |  |  | 730 nM | 0.31 nM | 6400 nM | 0.14 nM |  | CCK-1R selectivity (EC50 (CCK-2R)/EC50 (CCK-1R)) [2]: 5100
6 | B1 |  |  |  |  |  |  |  | 0.43 nM | 
